Values after ≈ are worked out from the molar mass of the structure shown. Active and inactive are the calls of the source. No cut-off for these calls is given here.
How the values were obtained:
[1] = biological target: T1, DNA polymerase catalytic subunit (Herpes simplex virus (type 1 / strain 17)) (UniProt P04293); test: Percentage of diphosphates (DP) in the second step of staggered assay mixture from step 1 was incubated with GMP kinase and crude extract of HSV-1 infected HeLa cells over night; type: functional, cell-based
T1 sequence (whole entry): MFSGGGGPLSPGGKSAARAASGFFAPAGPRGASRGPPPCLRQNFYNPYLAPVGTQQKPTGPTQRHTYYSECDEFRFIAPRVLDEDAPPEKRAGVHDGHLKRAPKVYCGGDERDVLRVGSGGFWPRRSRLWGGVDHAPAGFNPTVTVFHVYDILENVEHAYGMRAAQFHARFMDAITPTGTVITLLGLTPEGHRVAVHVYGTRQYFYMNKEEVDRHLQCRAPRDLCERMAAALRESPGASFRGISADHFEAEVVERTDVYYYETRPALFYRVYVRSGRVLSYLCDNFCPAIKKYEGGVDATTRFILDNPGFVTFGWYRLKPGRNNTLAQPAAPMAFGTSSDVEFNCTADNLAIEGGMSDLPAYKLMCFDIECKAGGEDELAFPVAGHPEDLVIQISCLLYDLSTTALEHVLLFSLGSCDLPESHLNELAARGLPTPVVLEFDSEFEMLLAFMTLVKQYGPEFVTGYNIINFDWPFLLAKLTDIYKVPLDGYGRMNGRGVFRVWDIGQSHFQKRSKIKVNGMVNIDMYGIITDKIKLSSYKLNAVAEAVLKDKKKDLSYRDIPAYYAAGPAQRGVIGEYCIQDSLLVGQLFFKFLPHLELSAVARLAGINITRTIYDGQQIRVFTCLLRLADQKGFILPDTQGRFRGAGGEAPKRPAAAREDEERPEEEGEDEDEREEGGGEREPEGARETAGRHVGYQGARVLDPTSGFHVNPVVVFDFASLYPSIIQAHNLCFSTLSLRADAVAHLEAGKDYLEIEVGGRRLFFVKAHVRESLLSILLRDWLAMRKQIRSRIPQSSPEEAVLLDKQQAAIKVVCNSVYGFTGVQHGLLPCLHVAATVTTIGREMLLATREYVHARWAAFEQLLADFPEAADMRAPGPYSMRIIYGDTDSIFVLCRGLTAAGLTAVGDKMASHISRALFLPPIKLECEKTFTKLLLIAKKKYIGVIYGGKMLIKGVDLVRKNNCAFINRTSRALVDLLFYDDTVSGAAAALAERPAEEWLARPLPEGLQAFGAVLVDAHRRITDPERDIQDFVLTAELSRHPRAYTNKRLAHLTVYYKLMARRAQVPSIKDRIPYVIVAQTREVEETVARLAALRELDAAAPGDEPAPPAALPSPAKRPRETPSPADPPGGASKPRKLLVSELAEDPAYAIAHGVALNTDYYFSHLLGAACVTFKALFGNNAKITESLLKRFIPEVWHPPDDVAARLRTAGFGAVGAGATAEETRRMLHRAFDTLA

Oryctolagus cuniculus [2] = species: Oryctolagus cuniculus; test: Antiviral activity against HSV-2 cell line (concentration required to prevent viral cytopathic effect in half of primary rabbit kidney cell cultures); Not Active at 100 ug/mL; type: functional, organism-based
[3] = biological target: T1, DNA polymerase catalytic subunit (Herpes simplex virus (type 1 / strain 17)); test: (§1) Percentage of triphosphates (TP) in the second step of staggered assay mixture from step 1 was incubated with GMP kinase and crude extract of HSV-1 infected HeLa cells over night; type: functional, cell-based; details: Homo sapiens
[4] = biological target: T1, DNA polymerase catalytic subunit (Herpes simplex virus (type 1 / strain 17)); test: Percentage of monophosphates (MP) in the second step of staggered assay mixture from step 1 was incubated with GMP kinase and crude extract of HSV-1 infected HeLa cells over night; type: functional, cell-based
Oryctolagus cuniculus [5] = species: Oryctolagus cuniculus; test: Antiviral activity against HSV-1 cell line (concentration required to prevent viral cytopathic effect in half of primary rabbit kidney cell cultures); Not Active at 100 ug/mL; type: functional, organism-based
[6] = biological target: T1, DNA polymerase catalytic subunit (Herpes simplex virus (type 1 / strain 17)); test: (§2) Inhibition of DNA polymerase; set-up: concentration or dose not given beside the values; details: concentration not given here
[7] = as §2; set-up: concentration or dose not given beside the values; details: concentration not given here
Oryctolagus cuniculus [8] = species: Oryctolagus cuniculus; test: (§3) Antiviral activity against HSV-1 cell line (concentration required to prevent viral cytopathic effect in half of primary rabbit kidney cell cultures); type: functional; details: read-out: ED50 (the source's name)
Oryctolagus cuniculus [9] = species: Oryctolagus cuniculus; test: (§4) Antiviral activity against HSV-2 cell line (concentration required to prevent viral cytopathic effect in half of primary rabbit kidney cell cultures); type: functional; details: read-out: ED50 (the source's name)
[10] = test system: Thymidine kinase (Human herpesvirus 1); test: Percentage of monophosphates (MP) formed in the first step of staggered assay compound was incubated with HSV-1 thymidine kinase for 4 hr
[11] = as §4; details: Oryctolagus cuniculus, HSV-2, read-out: ED50
[12] = as §3; details: Oryctolagus cuniculus, read-out: ED50
HeLa = test: as §1; type: functional, Homo sapiens
[13] = as §2; type: functional; details: concentration not given here

SMILES | DP [1] | ED50 (Oryctolagus cuniculus [2]) | TP [3] | MP [4] | ED50 (Oryctolagus cuniculus [5]) | inhibition [6] | inhibition [7] | EC50 (Oryctolagus cuniculus [8]) | EC50 (Oryctolagus cuniculus [9]) | MP [10] | NA (Oryctolagus cuniculus [2]) | NA (Oryctolagus cuniculus [5]) | EC50 [11] | EC50 [12] | TP (HeLa) | inhibition [13]
Nc1nc(O)c2ncn(CC#CCO)c2n1 | 0% | inactive | 0% | 0% | inactive | 0% | 5% |  |  |  |  |  |  |  |  | 
Nc1ncnc2c1ncn2C[C@H]1C[C@H]1CO | 0% | inactive | 0% | 0% | inactive | 5% | 0% |  |  |  |  |  |  |  |  | 
Nc1nc(O)c(N=O)c(NC[C@H]2C[C@H]2CO)n1 | 0% | inactive | 21% | 0% | inactive | 8% | 0% |  |  |  |  |  |  |  |  | 
Nc1nc(O)c2ncn(C[C@H]3C[C@@H]3CO)c2n1 | 48% | inactive | 2% | 9% | inactive | 26% | 30% |  |  |  |  |  |  |  |  | 
Nc1ncnc2c1ncn2C[C@H]1C[C@@H]1CO | 0% |  | 0% | 0% |  | 0% | 0% | 50 mg/L (≈ 228 µM) | 50 mg/L (≈ 228 µM) |  |  |  |  |  |  | 
Nc1nc(O)c2ncn(C/C=C/CO)c2n1 | 0% | inactive | 0% | 9% | inactive | 0% | 0% |  |  |  |  |  |  |  |  | 
Nc1nc(O)c2nnn(C[C@H]3C[C@H]3CO)c2n1 | 41% | inactive | 55% | 2% | inactive | 0% | 1% |  |  |  |  |  |  |  |  | 
Nc1nc(O)c2ncn(C/C=C\CO)c2n1 | 16% |  | 64% | 12% |  | 12% | 8% | 12 mg/L (≈ 54.2 µM) | 50 mg/L (≈ 226 µM) |  |  |  |  |  |  | 
Nc1ncnc2c1ncn2C/C=C\CO | 0% |  | 0% | 0% |  | 0% | 3% |  |  | 0% | inactive | inactive |  |  |  | 
Nc1nc2c(ncn2CCCCO)c(=O)[nH]1 | 10% |  | 17% | 0% |  | 20% | 20% | 3 mg/L (≈ 13.4 µM) | 12 mg/L (≈ 53.8 µM) |  |  |  |  |  |  | 
Nc1nc2c(ncn2COCCO)c(=O)[nH]1 [ACYCLOVIR] | 9% |  | 60% | 3% |  | 79% | 40% |  |  |  |  |  | 3 mg/L (≈ 13.3 µM) | 3 mg/L (≈ 13.3 µM) |  | 
Nc1nc(O)c2ncn(CC=C(CO)CO)c2n1 | 9% | inactive |  | 0% | inactive | 0% | 0% |  |  |  |  |  |  |  | 25% | 
Cc1cn(C[C@H]2C[C@H]2CO)c(=O)[nH]c1=O | 0% | inactive | 0% | 23% | inactive | 22% | 0% |  |  |  |  |  |  |  |  | 
Nc1nc(O)c2ncn(C[C@H]3C[C@H]3CO)c2n1 | 0% |  | 76% | 0% |  | 3% | 14% | 6 mg/L (≈ 25.5 µM) | 12 mg/L (≈ 51 µM) |  |  |  |  |  |  | 
Nc1nc(O)c2ncn(CCC(CO)CO)c2n1 [PENCICLOVIR] | 13% |  | 75% | 3% |  | 0% | 8% | 6 mg/L (≈ 23.7 µM) | 12 mg/L (≈ 47.4 µM) |  |  |  |  |  |  | 
Nc1nc(O)c2ccn(C[C@H]3C[C@H]3CO)c2n1 | 0% | inactive | 0% | 9% | inactive | 14% | 0% |  |  |  |  |  |  |  |  | 
Nc1nc2c(ncn2COC(CO)CO)c(=O)[nH]1 [GANCICLOVIR] | 10% |  | 84% | 3% |  | 60% | 22% | 3 mg/L (≈ 11.8 µM) | 3 mg/L (≈ 11.8 µM) |  |  |  |  |  |  | 
Nc1nc(O)c(N=O)c(NC[C@H]2C[C@@H]2CO)n1 | 0% | inactive | 0% | 9% | inactive | 9% | 5% |  |  |  |  |  |  |  |  | 
Nc1ncnc2c1ncn2CC1CC1(CO)CO (stereo unspecified) | 0% |  | 0% | 0% |  | 0% |  | 50 mg/L (≈ 201 µM) | 50 mg/L (≈ 201 µM) |  |  |  |  |  |  | 12%
Nc1nc(O)c2ncn(C[C@H]3CC3(CO)CO)c2n1 | 0% | inactive | 0% | 0% |  | 0% | 0% | 50 mg/L (≈ 188 µM) |  |  |  |  |  |  |  | 
